Test results reported in the supplement of paper PMC10307832.

Legend:
Assay in all cases: relative viability (nuclei count vs DMSO), 5 days (fraction); higher = more cells survive
[1] = compound: C1COCCN1C2=NC(=NC3=C2OC4=C3C=CC=N4)C5=CC(=CC=C5)NC(=O)C6=CN=C(C=C6)N + N=C(N)NC(=N)NCCc1ccccc1 [Phenformin] (partner 250 µM)
Summary of the method: (§1)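 Relative viability divides the nuclei count in treated wells by that in vehicle wells. Lung cancer cell lines were seeded in 1536-well plates, dosed by pin tool the next day, and fixed and stained after 5 days in one step with final 0.05% Triton X-100, 1% formaldehyde and 1 ug/ml Hoechst. Dosing was a single drug or a fixed anchor-drug dose plus five library-drug doses (not always all listed) in √10 steps, and values are medians of duplicate plates imaged at 4×.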

Entinostat + Tozasertib = compound: Nc1ccccc1NC(=O)c1ccc(CNC(=O)OCc2cccnc2)cc1 [Entinostat] + Cc1cc(Nc2cc(N3CCN(C)CC3)nc(Sc3ccc(NC(=O)C4CC4)cc3)n2)n[nH]1 [Tozasertib] (partner 0.1 µM)
Summary of the method: as §1

SGI-1776 + Crizotinib = compound: CN1CCC(CNc2ccc3ncc(-c4cccc(OC(F)(F)F)c4)n3n2)CC1 [SGI-1776] + C[C@@H](Oc1cc(-c2cnn(C3CCNCC3)c2)cnc1N)c1c(Cl)ccc(F)c1Cl [Crizotinib] (partner 1 µM)
Summary of the method: as §1

SGI-1776 + Phenformin = compound: CN1CCC(CNc2ccc3ncc(-c4cccc(OC(F)(F)F)c4)n3n2)CC1 [SGI-1776] + N=C(N)NC(=N)NCCc1ccccc1 [Phenformin] (partner 250 µM)
Summary of the method: as §1

| Cell Line | relative viability ([1]; first compound 0.02 µM) | relative viability ([1]; first compound 0.06325 µM) | relative viability ([1]; first compound 0.2 µM) | relative viability ([1]; first compound 0.6325 µM) | relative viability ([1]; first compound 2 µM) | relative viability (Entinostat + Tozasertib; first compound 0.02 µM) | relative viability (Entinostat + Tozasertib; first compound 0.06325 µM) | relative viability (Entinostat + Tozasertib; first compound 0.2 µM) | relative viability (Entinostat + Tozasertib; first compound 0.6325 µM) | relative viability (Entinostat + Tozasertib; first compound 2 µM) | relative viability (SGI-1776 + Crizotinib; first compound 0.08 µM) | relative viability (SGI-1776 + Crizotinib; first compound 0.8 µM) | relative viability (SGI-1776 + Crizotinib; first compound 2.53 µM) | relative viability (SGI-1776 + Crizotinib; first compound 8 µM) | relative viability (SGI-1776 + Phenformin; first compound 0.08 µM) | relative viability (SGI-1776 + Phenformin; first compound 0.8 µM) | relative viability (SGI-1776 + Phenformin; first compound 2.53 µM) | relative viability (SGI-1776 + Phenformin; first compound 8 µM) |
| --- | --- | --- | --- | --- | --- | --- | --- | --- | --- | --- | --- | --- | --- | --- | --- | --- | --- | --- |
| NCI-H2009 | 0.468 | 0.485 | 0.449 | 0.371 | 0.242 | 0.713 | 0.753 | 0.647 | 0.452 | 0.336 | 1.04 | 1.02 | 1.07 | 0.675 | 0.407 | 0.394 | 0.381 | 0.3 |
| HCC-827 | 0.384 | 0.43 | 0.419 | 0.416 | 0.386 | 0.425 | 0.406 | 0.335 | 0.302 | 0.184 | 0.956 | 0.975 | 0.985 | 0.915 | 0.412 | 0.424 | 0.459 | 0.301 |
| NCI-H661 | 0.268 | 0.3 | 0.263 | 0.248 | 0.206 | 0.339 | 0.332 | 0.282 | 0.334 | 0.396 | 0.932 | 1.02 | 1.03 | 0.964 | 0.269 | 0.271 | 0.306 | 0.246 |
| CAL-12T | 0.525 | 0.561 | 0.533 | 0.498 | 0.247 | 0.284 | 0.364 | 0.319 | 0.186 | 0.206 | 0.682 | 0.327 | 0.254 | 0.232 | 0.558 | 0.647 | 0.531 | 0.558 |
| PC-14 | 0.478 | 0.36 | 0.397 | 0.446 | 0.268 | 0.56 | 0.629 | 0.325 | 0.104 | 0.0609 | 0.889 | 0.895 | 0.96 | 0.79 | 0.573 | 0.648 | 0.579 | 0.151 |
| NCI-H23 | 0.818 | – | 0.815 | 0.747 | 0.669 | 0.364 | 0.264 | 0.292 | 0.193 | 0.121 | 0.747 | 0.368 | 0.383 | 0.256 | 0.77 | 0.702 | 0.752 | 0.72 |
| SK-LU-1 | 0.56 | 0.488 | 0.513 | 0.567 | 0.349 | 0.335 | 0.337 | 0.278 | 0.182 | 0.169 | 1.04 | 0.833 | 0.756 | 0.352 | 0.528 | 0.494 | 0.37 | 0.322 |
| NCI-H727 | 0.441 | 0.629 | 0.502 | 0.469 | 0.458 | 0.605 | 0.647 | 0.497 | 0.392 | 0.403 | 0.831 | 0.79 | 0.863 | 0.48 | 0.525 | 0.577 | 0.552 | 0.498 |
| HCC-366 | 0.63 | 0.709 | 0.644 | 0.644 | 0.573 | 0.0983 | 0.0503 | 0.0518 | 0.0518 | 0.0252 | 0.549 | 0.557 | 0.393 | 0.098 | 0.61 | 0.527 | 0.564 | 0.431 |
| SW 1573 | 0.368 | 0.454 | 0.314 | 0.319 | 0.205 | 0.237 | 0.186 | 0.242 | 0.179 | 0.164 | 0.904 | 0.835 | 0.624 | 0.395 | 0.381 | 0.31 | 0.356 | 0.275 |
| HCC-44 | 0.182 | 0.191 | 0.137 | 0.157 | 0.171 | 0.898 | 0.581 | 0.553 | 0.309 | 0.221 | 0.818 | 0.828 | 0.867 | 0.764 | 0.197 | 0.174 | 0.151 | 0.125 |
| A-427 | 0.397 | 0.359 | 0.275 | 0.245 | 0.292 | 0.213 | 0.225 | 0.203 | 0.182 | 0.159 | 0.849 | 0.92 | 0.974 | 0.601 | 0.258 | 0.277 | 0.275 | 0.209 |
| NCI-H441 | 0.798 | 0.868 | 0.731 | 0.833 | 0.527 | 0.593 | 0.483 | 0.425 | 0.275 | 0.224 | 0.701 | 0.54 | 0.731 | 0.61 | 0.759 | 0.769 | 0.82 | 0.663 |
| ABC-1 | 0.225 | 0.242 | 0.241 | 0.235 | 0.207 | 0.175 | 0.237 | 0.189 | 0.2 | 0.193 | 0.989 | 1.17 | 0.707 | 0.317 | 0.23 | 0.24 | 0.219 | 0.236 |
| LK-2 | 0.538 | 0.551 | 0.249 | 0.2 | 0.252 | 0.151 | 0.176 | 0.168 | 0.159 | 0.168 | 0.228 | 0.228 | 0.258 | 0.25 | 0.396 | 0.515 | 0.428 | 0.168 |
| NCI-H2085 | 0.686 | 0.753 | 0.678 | 0.629 | 0.398 | 0.788 | 0.618 | 0.612 | 0.431 | 0.365 | 0.858 | 0.767 | 0.853 | 0.71 | 0.852 | 0.8 | 0.795 | 0.58 |
| NCI-H647 | 0.574 | 0.768 | 0.466 | 0.519 | 0.195 | 0.32 | 0.214 | 0.228 | 0.0707 | 0.0371 | 1.16 | 0.842 | 0.992 | 0.291 | 0.499 | 0.499 | 0.47 | 0.151 |
| SK-MES-1 | 0.663 | 0.766 | 0.729 | 0.618 | 0.462 | 0.849 | 0.826 | 0.925 | 0.673 | 0.324 | 1.11 | 0.947 | 1.02 | 0.979 | 0.643 | 0.593 | 0.53 | 0.493 |
